Test system: MCM4 mRNA in A3 cells
Assay: Real time PCR of MCM4 mRNA
Assay type: cell-based, human
Conditions: 10 μM, 72 h
Procedure: RNA was extracted from cultured cells using TRIzol® Reagent (Thermo Fisher Scientific). RNA quantity and quality were assessed by NanoDrop® (ND-1000 V3.7.1; Thermo Fisher Scientific). The High-Capacity cDNA Reverse Transcription Kit (Applied Biosystems) was utilized for cDNA synthesis following the manufacturer's instructions. Two microliters of cDNA at a final concentration of 10 ng/μl were mixed with GoTaq® qPCR MasterMix 1× (Promega) and 1 μM cDNA primers of each pair of primers (F/R) in a final volume reaction of 10 μl. Primers used are listed in Supplementary Table S2. The amplification conditions consisted of an initial step at 95°C for 10 min, followed by 40 cycles of 10 s at 95°C and 1 min at 60°C. Each qPCR was performed in duplicates or triplicates including no-template controls in an Abi QuantStudio 1 Flex Real-Time PCR System (Applied Biosystems). Relative transcript levels for each replication gene, was calculated using the 2ΔΔCt method for qPCR analysis after normalization with the housekeeping gene beta-actin (B-actin-F 5′-CCTGGCACCCAGCACAAT- 3′; B-actin-R 5′ - GGGCCGGACTCGTCATACT-3′).
Figure 6. […] Only genes with a mean normalized count >5 were analyzed. […] Statistical significance was determined using a two-sided unpaired t-test (ns, non-significant, *P < 0.05, **P < 0.01, ***P < 0.001 and ****P < 0.0001).

O=C(Nc1ccc(I)cc1)N1CCC(n2c(=O)[nH]c3c(Br)cccc32)CC1 [TH5487]
MCM4 mRNA levels: slight but significant downregulation

Reference: article PMC7708037, “Targeting OGG1 arrests cancer cell proliferation by inducing replication stress” (Nucleic Acids Research, 2020)
